From US10112974B2, “Method for the production of 18F-labeled active esters and their application exemplified by the preparation of a PSMA-specific PET-tracer” (Max-Planck-Gesellschaft zur Foerderung der Wissenschaften …, priority 2014, dated 2018)

Experiments:
[1] = test system: LNCaP-C4-2 prostate tumor cells
Method: Five 8-week-old male C.B-Igh-1b/IcrTac-Prkdcscid mice (Taconic) were injected subcutaneously in the neck region with 4×10^6 LNCaP-C4-2 prostate tumor cells. […] The first PET measurement was immediately followed by a CT scan during which the animal was left in the same position. Both tracers were injected i.v. through the lateral tail vein ([^18F]1-10: 21-32 MBq; [^68Ga]HBED-CC: 19-33 MBq, on two consecutive days). Emission data collection started 60 min after injection and lasted 45 min. Image reconstruction was performed using Fourier rebinning and an ordered subset expectation maximization (3D-OSEM) procedure, yielding images with voxel sizes of 0.78×0.78×0.80 mm. Image analysis was performed with VINCI 4.0 (MPI for Metabolism Research, Cologne, Germany). Tracer uptake in the tumor as well as liver, kidney, and background was determined using volumes of interest (VOIs) covering the respective structure. Significant differences were assessed using two-way repeated measures ANOVA with factors “structure” and “tracer”, followed by Holm-Sidak post hoc comparison. Tumor sizes were measured by drawing accurate tumor VOIs in the CT images, and extracting VOI volume. Tracer uptake was correlated tumor size using the Pearson correlation test.

[2] = test system: PSMA positive prostate tumor xenografts; conditions: PSMA positive prostate tumor xenografts in mice; clear delineation; cited from earlier work
[3] = Storage and solution stability of iodonium iodide 22; assay type: physicochemical

Row | uptake in the kidney ([1]; PET 60 min after i.v. injection, kidney VOI) | liver uptake ([1]; PET 60 min after i.v. injection, liver VOI) | kidney uptake compared to [^68Ga]HBED-CC (50) ([1]; PSMA^+ PCa mice model) | stability in solution ([3]; in solution, especially at elevated temperatures, in DMF or DMSO already at ambient temperature) | storage stability ([3]; stored at 4° C. under argon) | Structure (SMILES) | tumor tracer uptake ([1]; PET 60 min after i.v. injection, 45 min emission, LNCaP-C4-2 xenograft mice, tumor VOI) | Signal-to-noise ratio (tumor versus background) ([1]; PET 60 min after i.v. injection, LNCaP-C4-2 xenograft mice) | imaging characteristics compared to [^68Ga]HBED-CC (50) ([1]; PSMA^+ PCa mice model) | tumor to background ratio [2]
1 | 3.0±1.9 % ID/g | 1.1±0.5 % ID/g | much lower | – | – | O=C(O)CCC(NC(=O)NC(CCCCNC(=O)c1ccc([18F])nc1)C(=O)O)C(=O)O (stereo not drawn) [[^18F]1-10, 2-(3-{1-carboxy-5-[(6-[^18F]fluoro-pyridine-3-carbonyl)-amino]-pentyl}-ureido)-pentanedioic acid] | 1.4±1.7 % ID/g | 5.9±4.2 | nearly identical | excellent
2 | – | – | – | unstable | ≥ 4 months | COc1ccc([I+]c2ccc(C(=O)Oc3c(F)c(F)cc(F)c3F)cc2)cc1.[I-] [Compound 22, (4-Methoxyphenyl) [4-(2,3,5,6-tetrafluorophenoxycarbonyl)phenyl]iodonium iodide] | – | – | – | –
